This is an account of results in ChEMBL document CHEMBL1201862, “PubChem BioAssay data set” (2004).

For orientation: IC50 means the midpoint of a concentration-inhibition curve. As usually defined, the AC50 is the concentration giving half of the maximal activity seen.

The target of assay [1] is T1, Tyrosyl-DNA phosphodiesterase 2 (Homo sapiens, UniProt O95551).
T1 sequence (O95551 whole entry): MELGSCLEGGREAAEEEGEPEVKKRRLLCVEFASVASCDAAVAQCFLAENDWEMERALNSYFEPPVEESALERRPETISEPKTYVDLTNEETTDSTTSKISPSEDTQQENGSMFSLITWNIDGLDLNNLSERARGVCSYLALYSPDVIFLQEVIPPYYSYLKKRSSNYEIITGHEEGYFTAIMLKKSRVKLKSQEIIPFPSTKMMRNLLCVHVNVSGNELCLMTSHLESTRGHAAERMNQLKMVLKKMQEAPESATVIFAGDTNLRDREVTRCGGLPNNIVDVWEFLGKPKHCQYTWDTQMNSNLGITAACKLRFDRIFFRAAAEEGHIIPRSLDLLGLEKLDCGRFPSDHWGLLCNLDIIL
The assay is described as follows: human TDP2 enzyme inhibitors, dose response, biochemical, epi absorbance, IC50 (AID 743297).

The target in the next assay is T2, Hexokinase HKDC1 (Homo sapiens, UniProt Q2TB90).
T2 sequence (Q2TB90 whole entry): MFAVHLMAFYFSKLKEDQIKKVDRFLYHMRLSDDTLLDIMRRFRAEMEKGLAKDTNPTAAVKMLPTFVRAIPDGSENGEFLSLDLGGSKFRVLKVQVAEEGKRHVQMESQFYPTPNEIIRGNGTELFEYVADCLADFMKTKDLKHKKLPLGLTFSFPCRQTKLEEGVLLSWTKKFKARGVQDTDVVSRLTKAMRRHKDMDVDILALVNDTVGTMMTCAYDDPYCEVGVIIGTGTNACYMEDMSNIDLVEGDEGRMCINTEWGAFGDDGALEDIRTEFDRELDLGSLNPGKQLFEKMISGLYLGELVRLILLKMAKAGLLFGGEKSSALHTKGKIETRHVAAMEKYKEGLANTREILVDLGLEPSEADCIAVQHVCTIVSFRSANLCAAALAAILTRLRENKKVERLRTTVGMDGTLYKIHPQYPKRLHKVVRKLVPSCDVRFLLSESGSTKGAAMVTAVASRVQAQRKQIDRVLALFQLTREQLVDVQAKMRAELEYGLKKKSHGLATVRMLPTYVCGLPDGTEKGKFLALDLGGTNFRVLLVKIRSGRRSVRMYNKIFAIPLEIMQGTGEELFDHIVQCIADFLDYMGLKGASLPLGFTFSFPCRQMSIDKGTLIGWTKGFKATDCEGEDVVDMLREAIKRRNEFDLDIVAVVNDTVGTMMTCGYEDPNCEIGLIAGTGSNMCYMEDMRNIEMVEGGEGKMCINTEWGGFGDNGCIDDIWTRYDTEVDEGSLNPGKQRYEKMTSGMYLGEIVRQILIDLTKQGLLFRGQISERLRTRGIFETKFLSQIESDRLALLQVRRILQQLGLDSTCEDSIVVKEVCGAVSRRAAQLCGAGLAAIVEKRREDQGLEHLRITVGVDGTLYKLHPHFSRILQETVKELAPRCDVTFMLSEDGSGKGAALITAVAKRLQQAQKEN
Briefly: HKDC1 hexokinase inhibitors, dose response, biochemical, W721R variant (AID 504729). The class given is functional.

Assay [2] deals with T3, Histone-lysine N-methyltransferase NSD2 (Homo sapiens, UniProt O96028).
T3 sequence (O96028 whole entry): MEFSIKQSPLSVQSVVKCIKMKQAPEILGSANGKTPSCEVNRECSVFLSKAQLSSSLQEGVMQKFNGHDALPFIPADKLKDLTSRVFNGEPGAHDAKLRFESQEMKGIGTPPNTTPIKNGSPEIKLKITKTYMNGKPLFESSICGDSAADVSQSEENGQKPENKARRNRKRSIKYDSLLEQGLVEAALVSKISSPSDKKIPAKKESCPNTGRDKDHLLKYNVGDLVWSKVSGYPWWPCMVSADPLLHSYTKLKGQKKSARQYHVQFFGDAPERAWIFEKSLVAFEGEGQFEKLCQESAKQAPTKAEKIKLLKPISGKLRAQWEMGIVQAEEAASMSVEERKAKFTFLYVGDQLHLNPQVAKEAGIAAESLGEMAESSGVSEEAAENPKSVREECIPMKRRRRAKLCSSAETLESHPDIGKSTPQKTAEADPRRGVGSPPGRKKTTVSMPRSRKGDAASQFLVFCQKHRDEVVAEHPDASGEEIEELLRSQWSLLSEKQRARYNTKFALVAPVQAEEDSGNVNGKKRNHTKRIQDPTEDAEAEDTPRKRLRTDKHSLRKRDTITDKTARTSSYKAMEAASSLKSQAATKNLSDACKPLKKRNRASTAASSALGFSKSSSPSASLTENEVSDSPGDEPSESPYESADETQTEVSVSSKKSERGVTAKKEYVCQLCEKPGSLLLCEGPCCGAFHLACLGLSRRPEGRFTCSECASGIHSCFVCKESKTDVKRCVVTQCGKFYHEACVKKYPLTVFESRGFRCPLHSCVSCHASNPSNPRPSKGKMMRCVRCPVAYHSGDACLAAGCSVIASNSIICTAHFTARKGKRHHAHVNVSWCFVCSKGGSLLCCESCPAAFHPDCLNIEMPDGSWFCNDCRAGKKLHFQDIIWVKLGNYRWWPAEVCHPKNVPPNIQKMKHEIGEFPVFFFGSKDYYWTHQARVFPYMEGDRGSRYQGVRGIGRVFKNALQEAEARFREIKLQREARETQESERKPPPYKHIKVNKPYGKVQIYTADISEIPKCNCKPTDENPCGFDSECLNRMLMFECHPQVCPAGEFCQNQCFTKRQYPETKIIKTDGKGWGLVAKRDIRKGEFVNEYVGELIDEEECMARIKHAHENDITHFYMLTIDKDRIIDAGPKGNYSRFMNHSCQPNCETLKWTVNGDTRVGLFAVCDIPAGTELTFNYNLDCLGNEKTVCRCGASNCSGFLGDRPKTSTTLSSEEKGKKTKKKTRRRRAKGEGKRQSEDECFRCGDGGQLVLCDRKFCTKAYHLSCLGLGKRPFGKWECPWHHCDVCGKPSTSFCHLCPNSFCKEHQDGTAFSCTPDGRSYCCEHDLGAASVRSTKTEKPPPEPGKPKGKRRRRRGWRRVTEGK
The class given is biochemical.

Calls of active or inactive are those of the source.

Take `O=C1C=C(Nc2ccccc2C(=O)O)c2ccccc2C1=O`: the IC50 is 6.56 µM (active) in assay [1] and 12.4 µM (active) at Hexokinase HKDC1.

Turning to `CC(C)(C)c1cc[n+](C2=C([N-]S(=O)(=O)c3ccccc3)C(=O)c3ccccc3C2=O)cc1`, the AC50 in assay [2] was 2.63 µM (active).

`COc1ccc(NC(=S)Nc2ccc3nsnc3c2)cc1`: the IC50 in assay [1] was 9.93 µM (active). In addition, the AC50 in assay [2] is 3.57 µM (active).
